Assay results: patent US7232837B2, “Stereoisomers with high affinity for adrenergic receptors” (McNeil-PPC, Inc., priority 1999, dated 2007)

Key:
[1] = tested on: New Zealand white rabbits; assay: Intraocular pressure (IOP) after topical application to the rabbit eye; assay type: in vivo; conditions: mean ± S.E.
Method: These diastereomers were administered topically as either 1% or 2% solutions in buffered saline. Pupillary diameter and IOP were measured in all animals over a six hour time period during the day to minimize diurnal variations in IOP and pupil diameter.
The experiments were performed on adult male New Zealand white rabbits weighing 3.0–6.0 kg. All rabbits were caged individually and maintained on a 12 hr/12 hr light/dark schedule with free access to food and water. All animal procedures were in conformity with the ARVO Resolution on the Use and Care of Animals in Research. All treated rabbits had served as controls by having received a saline treatment on a different day.
Only one eye received drug treatment. The contralateral eye served as a control. Saline (or PBS) and drug treated rabbits were treated and observed simultaneously. A single dose was given at time zero and IOP and pupil diameter measured at −1.0, −0.5, 0.5, 1, 3 and 5 hrs post-treatment.
IOP measurements were recorded with an Alcon Applanation Pneumotonograph (Surgical Products Division, Alcon Laboratories, Inc., Ft. Worth, Tex.) in rabbits placed in Lucite restraining cages. Initial topical application of a two drop 0.5% proparacaine HCl (Ophthetic®, Allergan Pharmaceuticals, Inc.) was performed on each rabbit.
Mean and Standard Error values were used to construct time-response and dose-response curves for the treated and contralateral eye of research rabbits. The data were analyzed statistically by an analysis of variance and a Bonferoni's test for significance. P<0.05 was the accepted level of significance.

Rat = assay: Dosage which raised mean arterial pressure 10%, rat; assay type: in vivo
Swiss-Webster mice [2] = assay: H1 receptor antagonist (triprolidine) interaction study, locomotor activity in mice; conditions: mice pretreated with triprolidine 20 min before the test compound
Method: H1 receptor antagonist interaction studies. […] The mice were immediately placed in the activity testing chamber for a 2-h session. Doses of the test compound were selected from the ascending or descending time of the dose-effect curve determined from the compound-alone studies. Eight mice were tested for each triprolidine/test compound combination.
(§1) Statistical analysis. Time course data for each compound were considered in 2-way analyses of variance with dose as a between-group and time as a within-group factor. The dose-effect data were considered in 1-way analyses of variance, and planned individual comparisons were conduced between each dose and the saline control group. Interaction studies were considered in 2-way analyses of variance, with Pretreatment and Test dose as the factors.

Swiss-Webster mice [3] = assay: Locomotor stimulant and depressant effects in mice; conditions: i.p.
Method: Male Swiss-Webster mice (HSD ND4, Harlan Sprague Dawley, Houston, Tex.) aged 2–3 months were used in these studies. Each dose group consisted of 8 mice. The mice were housed 2 to 4 per cage in 30.4×22.9×15.2 cm clear polycarbonate cages with food and water available ad libitum for at least one week prior to locomotor activity testing. The colony was maintained at 23±1° C., on a normal light-dark cycle beginning at 0700 hr. All testing took place during the light portion of the light-dark cycle.
Horizontal (forward movement) locomotor activity was measured using a standardized, optical activity monitoring system [Model KXYZCM (16), Omnitech Electronics, Columbus, Ohio]. Activity was monitored in forty 40.5×40.5×30.5 cm clear acrylic chambers that where housed in sets of two within larger sound-attenuating chambers. A panel of 16 infrared beams and corresponding photodetectors were spaced 2 cm apart along the sides and 2.4 cm above the floor of each activity chamber. A 7.5-W incandescent light above each chamber provided dim illumination via a rheostat set to 20% of full scale. Fans provided an 80-dB ambient noise level within the chamber.
Triprolidine HCl was obtained from Research Biochemicals International, (Natick, Mass.).
Locomotor stimulant effects. […] (+)-Amphetamine was used as a positive control. The total horizontal distance traversed (cm) was recorded at 10 minute intervals for a 2-hour session. Separate groups of 8 mice were assigned to each dose or saline group, and dose-effect testing continued for each compound until maximal stimulant or depressant effects could be estimated. A separate control group was tested along with each compound.
Using TableCurve 2D v2.03 (Jandel Scientific), the mean average total distance traversed (cm/10 min) for that period was fit to a 3-parameter logistic peak function of log10 dose (with the constant set to the mean of the saline group), and the maximum effect estimated from the resulting curve. The […] (dose producing ½ maximal stimulant activity) was estimated from a linear regression against log10 dose of the ascending portion of the dose-effect curve. The stimulant efficacy was the peak effect of the compound (cm/10 min) as estimated from the logistic peak function, minus the mean control distance traveled (cm/10 min), and was expressed for each stimulant compound as a ratio to the stimulant efficacy determined for (+)-amphetamine.
The mean average total distance traversed (cm/10 min) for that period were fit to a linear function of log10 dose of the descending portion of the dose-effect curve. […] Efficacy was the ratio of maximal depressant effect to maximum possible depression for each compound (mean average total distance of the control group minus the lowest mean total distance, expressed as a ratio to the control group total distance).
as §1

Dog = assay: Dosage which raised mean arterial pressure 10%, dog; assay type: in vivo

Work on `CNC[C@H](O)c1cccc(O)c1` [(−)-Phenylephrine, (−)-phenylephrine] yielded an IOP ([1]; 1% topical, drug treated eye (T), 0.5 hr) of 24 ± 0.6 mmHg, an IOP ([1]; 1% topical, drug treated eye (T), 1 hr) of 24 ± 1.0 mmHg and an IOP ([1]; 1% topical, drug treated eye (T), 3 hr) of 23 ± 1.5 mmHg. For the same compound, the IOP ([1]; 1% topical, drug treated eye (T), 5 hr) was 21 ± 1.9 mmHg, the IOP ([1]; 1% topical, drug treated eye (T), −0.5 hr (pre-treatment)) was 16 ± 1.5 mmHg and the IOP ([1]; 1% topical, drug treated eye (T), −1 hr (pre-treatment)) was 20 ± 1.6 mmHg. The IOP ([1]; 1% topical, untreated contralateral eye (U), 0.5 hr) was 18 ± 1.6 mmHg, the IOP ([1]; 1% topical, untreated contralateral eye (U), 1 hr) was 19 ± 1.3 mmHg and the IOP ([1]; 1% topical, untreated contralateral eye (U), 3 hr) was 20 ± 1.9 mmHg. For the same compound, the IOP ([1]; 1% topical, untreated contralateral eye (U), 5 hr) was 19 ± 1.7 mmHg, the IOP ([1]; 1% topical, untreated contralateral eye (U), −0.5 hr (pre-treatment)) was 15 ± 2.1 mmHg and the IOP ([1]; 1% topical, untreated contralateral eye (U), −1 hr (pre-treatment)) was 16 ± 1.0 mmHg. The IOP ([1]; 2% topical, drug treated eye (T), 0.5 hr) was 12 ± 0.8 mmHg, the IOP ([1]; 2% topical, drug treated eye (T), 1 hr) was 14 ± 2.0 mmHg and the IOP ([1]; 2% topical, drug treated eye (T), 3 hr) was 16 ± 0.8 mmHg. It also gave an IOP ([1]; 2% topical, drug treated eye (T), 5 hr) of 14 ± 1.3 mmHg, an IOP ([1]; 2% topical, drug treated eye (T), −0.5 hr (pre-treatment)) of 15 ± 1.5 mmHg and an IOP ([1]; 2% topical, drug treated eye (T), −1 hr (pre-treatment)) of 18 ± 1.6 mmHg. It also gave an IOP ([1]; 2% topical, untreated contralateral eye (U), 0.5 hr) of 20 ± 2.0 mmHg, an IOP ([1]; 2% topical, untreated contralateral eye (U), 1 hr) of 20 ± 2.4 mmHg and an IOP ([1]; 2% topical, untreated contralateral eye (U), 3 hr) of 14 ± 1.7 mmHg. The IOP ([1]; 2% topical, untreated contralateral eye (U), 5 hr) was 14 ± 2.0 mmHg, the IOP ([1]; 2% topical, untreated contralateral eye (U), −0.5 hr (pre-treatment)) was 17 ± 1.9 mmHg and the IOP ([1]; 2% topical, untreated contralateral eye (U), −1 hr (pre-treatment)) was 17 ± 1.9 mmHg. For the same compound, the “Dosage of Enantiomer which raised mean arterial pressure 10%, Rat” value (Rat) was 3 to 5 µg, the “effect of triprolidine pretreatment on stimulant or depressant effects” value (Swiss-Webster mice [2]) was “failed to show significant modification of stimulant or depressant effects” and the “Depression Time: 30-min period following injection in which the maximal depression occurred” value (Swiss-Webster mice [3]) was 0 to 30 min. For the same compound, the “Stimulation Time: 30-min period following injection in which the maximal stimulant effect occurred” value (Swiss-Webster mice [3]) was 60 to 90 min, the “locomotor depressant effects, time course (result in words)” value (Swiss-Webster mice [3]) was “dose-dependent locomotor depression within 10 to 20 minutes following injection” and the “Depression Potency: dose resulting in ½ the maximal depressant effect (ID50)” value (Swiss-Webster mice [3]; — denotes absence of significant effect) was 2.3 mg/kg. The “Dosage of Enantiomer which raised mean arterial pressure 10%, Dog” value (Dog) was 10 µg/kg.
